Data as given in ChEMBL document CHEMBL4665706, “Synthesis of a Unique Psammaplysin F Library and Functional Evaluation in Prostate Cancer Cells by Multiparametric Quantitative Single Cell Imaging” (J Nat Prod, 2020).
Active and inactive are the calls of the source. The calls are words filed in the database; no cut-off is given here.

What was measured:
LNCaP [1] = assay: Cell cycle arrest in human LNCaP cells assessed as accumulation of cells at M phase at 20 to 50 uM after 24 hrs by DAPI staining-based fluorescence assay; assay type: functional; conditions: dose microM 20-50, time 24.0 hrs
LNCaP [2] = assay: Cell cycle arrest in human LNCaP cells assessed as accumulation of cells at G2 phase at 20 to 50 uM after 24 hrs by DAPI staining-based fluorescence assay; assay type: functional; conditions: dose microM 20-50, time 24.0 hrs
LNCaP [3] = assay: Reduction in mitochondrial membrane potential in human LNCaP cells assessed as reduction in tubular structure at 20 to 50 uM after 24 hrs by Hoechst 33342/MTG staining-based by fluorescence assay; assay type: functional, cell-based; conditions: dose microM 20-50, time 24.0 hrs
LNCaP [4] = assay: Reduction in mitochondrial membrane potential in human LNCaP cells assessed as mitochondrial morphological change at 50 uM after 24 hrs by Hoechst 33342/MTG staining-based by fluorescence assay; assay type: functional, cell-based
LNCaP [5] = assay: Cell cycle arrest in human LNCaP cells assessed as cell death at 20 to 50 uM after 24 hrs in presence of 6AA by DAPI staining-based fluorescence assay; assay type: functional; conditions: dose microM 20-50, time 24.0 hrs
LNCaP [6] = assay: Cell cycle arrest in human LNCaP cells assessed as cell death at 20 to 50 uM after 24 hrs in presence of VINB by DAPI staining-based fluorescence assay; assay type: functional; conditions: dose microM 20-50, time 24.0 hrs

Structure (SMILES): COC1=C(Br)C[C@@]2(OC=C1Br)ON=C(C(=O)NCCCOc1c(Br)cc(CCN(C)C(=O)NC3CCCC3)cc1Br)[C@H]2O
- Activity (LNCaP [1]): Active
- Activity (LNCaP [2]): Active

Structure (SMILES): COC1=C(Br)C[C@@]2(OC=C1Br)ON=C(C(=O)NCCCOc1c(Br)cc(CCN(C)C(=O)NCCc3ccc(F)cc3)cc1Br)[C@H]2O
- Activity (LNCaP [1]): Active
- Activity (LNCaP [2]): Active

Structure (SMILES): COC1=C(Br)C[C@@]2(OC=C1Br)ON=C(C(=O)NCCCOc1c(Br)cc(CCN(C)C(=O)NCc3ccc(OC)cc3)cc1Br)[C@H]2O
- Activity (LNCaP [1]): inactive
- Activity (LNCaP [2]): inactive

Structure (SMILES): C=CCNC(=O)N(C)CCc1cc(Br)c(OCCCNC(=O)C2=NO[C@]3(CC(Br)=C(OC)C(Br)=CO3)[C@@H]2O)c(Br)c1
- Activity (LNCaP [1]): Active
- Activity (LNCaP [2]): Active
- Activity (LNCaP [3]): Active

Structure (SMILES): CNCCc1cc(Br)c(OCCCNC(=O)C2=NO[C@]3(CC(Br)=C(OC)C(Br)=CO3)[C@@H]2O)c(Br)c1
- Activity (LNCaP [1]): Active
- Activity (LNCaP [4]): Active
- Activity (LNCaP [2]): Active
- Activity (LNCaP [3]): Active

Structure (SMILES): COC1=C(Br)C[C@@]2(OC=C1Br)ON=C(C(=O)NCCCOc1c(Br)cc(CCN(C)C(=O)Nc3ccccc3)cc1Br)[C@H]2OC(=O)c1ccccc1
- Activity (LNCaP [1]): inactive
- Activity (LNCaP [2]): inactive

Structure (SMILES): CCCCNC(=O)N(C)CCc1cc(Br)c(OCCCNC(=O)C2=NO[C@]3(CC(Br)=C(OC)C(Br)=CO3)[C@@H]2O)c(Br)c1
- Activity (LNCaP [1]): Active
- Activity (LNCaP [5]): Active
- Activity (LNCaP [6]): Active
- Activity (LNCaP [2]): Active
- Activity (LNCaP [3]): Active

Structure (SMILES): COC1=C(Br)C[C@@]2(OC=C1Br)ON=C(C(=O)NCCCOc1c(Br)cc(CCN(C)C(=O)Nc3cccc(OC)c3OC)cc1Br)[C@H]2O
- Activity (LNCaP [1]): inactive
- Activity (LNCaP [2]): inactive

Structure (SMILES): COC1=C(Br)C[C@@]2(OC=C1Br)ON=C(C(=O)NCCCOc1c(Br)cc(CCN(C)C(=O)Nc3ccc(C(C)=O)cc3)cc1Br)[C@H]2O
- Activity (LNCaP [1]): Active
- Activity (LNCaP [2]): Active

Structure (SMILES): COC1=C(Br)C[C@@]2(OC=C1Br)ON=C(C(=O)NCCCOc1c(Br)cc(CCN(C)C(=O)C(C)(C)C)cc1Br)[C@H]2OC(=O)C(C)(C)C
- Activity (LNCaP [1]): Active
- Activity (LNCaP [2]): Active
- Activity (LNCaP [3]): Active

Structure (SMILES): COC1=C(Br)C[C@@]2(OC=C1Br)ON=C(C(=O)NCCCOc1c(Br)cc(CCN(C)C(=O)C(C)(C)C)cc1Br)[C@H]2O
- Activity (LNCaP [1]): Active
- Activity (LNCaP [5]): Active
- Activity (LNCaP [6]): Active
- Activity (LNCaP [2]): Active
- Activity (LNCaP [3]): Active
